Measurements reported in PubChem BioAssay AID179 (DTP/NCI, 2004).
Several values for one entry are separate records, joined by “and”; a condition that tells them apart may be missing. Equal values may be shown once. Activity calls are given as the source filed them.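 How the source made its calls: active means compounds giving half or more protection of infected cells from virus-caused growth loss, again on retest; inactive means the rest.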 Where a SMILES comes first, the peptide text is derived from it.

System: CEM cells HIV-1 protection, formazan growth assay
Assay: NCI AIDS Antiviral Assay
Details: for IC50: measured here: growth of uninfected CEM cells
Outline: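 Screen of anti-HIV-1 activity in human CEM cells using a formazan-based growth measurement at five drug concentrations. Hits with 50% or greater protection were repeated, and confirmation required reproducible complete protection.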

Structure (SMILES) | EC50 | IC50 | outcome
COC1=CC(=O)c2c(cc3c(c2O)-c2c(OC)cc4cc5c(c(O)c4c2OC(=O)CC(C)(O)C3)C(=O)CC(C)(O)C5)C1=O (configuration not stated) | > 100 µM | 5.37 µM | –
CCC(C)C1(O)OC2CC3(C)OC(=CC3=O)/C(C)=C\C3OC(=O)C1(C)C32 (configuration not stated) | > 138 µM | 7.59 µM | –
CC(=O)OCC1OC(OC2C(CSC3OC(COC(C)=O)C(OC(C)=O)C(OC(C)=O)C3OC(C)=O)OC(OC(C)=O)C(OC(C)=O)C2OC(C)=O)C(OC(C)=O)C(OC(C)=O)C1OC(C)=O (configuration not stated) | > 36.3 µM | > 36.3 µM | –
Cc1ccc(S(=O)(=O)N/N=C(\CCN2CCCC2)CC(c2ccccc2)c2c(O)c3ccccc3oc2=O)cc1 (configuration not stated) | > 12 µM | > 12 µM | –
N#CC1=CNc2ccccc2N=C1N | > 200 µM | > 200 µM | –
Cc1ccc2c(c1)C1(SCCC(=O)N1c1ccc(Cl)cc1)C(=O)N2 (configuration not stated) | > 191 µM | 91.2 µM | –
COc1ccc(-c2c(C#N)c(-c3ccc(C)cc3)n(NS(=O)(=O)c3ccc(C)cc3)c(=O)c2C#N)cc1 | > 200 µM | 17.4 µM | –
Cc1c(COC(=O)NC(C)C)c(COC(=O)NC(C)C)c2n1CS(=O)(=O)C2 | > 200 µM | > 200 µM | –
O=C1CCC(c2ccccc2)CCN1 (configuration not stated) | – | – | inactive
O=S(=O)(C1=CC(S(=O)(=O)c2ccccc2)CN(Cc2ccccc2)C1c1ccccc1)c1ccccc1 (configuration not stated) | – | – | inactive
O=C1c2c(O)cccc2C(C(=O)CCCC(=O)C2c3cccc(O)c3C(=O)c3c(O)cccc32)c2cccc(O)c21 | > 4.79 µM | 0.794 µM | –
O=C(O)C(=O)CC(=O)c1ccc(Br)cc1 | > 200 µM | – | –
Cc1cc(NS(=O)(=O)c2ccc(NC(=O)c3cccc4c(Nc5ccc(S(=O)(=O)Nc6cc(C)on6)cc5)c5ccc(Cl)cc5nc34)cc2)no1 | > 240 µM | 135 µM | –
CC(=O)/C=c1\[nH]/c(=C\C=C\c2ccccc2)c(=O)n1/C=C1\C(=O)Oc2ccccc2C1=O | > 200 µM | 166 µM | –
Nc1nc(NCCCO)cc(=O)[nH]1 | > 200 µM | > 200 µM | –
COc1ccc2c(c1)c[n+](C)c1c3cc(OC)c(OC)cc3ccc21 | > 151 µM | 1.32 µM and 1.45 µM and 1.35 µM | –
CCCCOC(=S)SSC(=S)OCCCC | > 56.2 µM | 11.5 µM | –
Cc1cn(C2CC(N(C)O)C(CO)O2)c(=O)[nH]c1=O (configuration not stated) | 31.6 µM and > 200 µM | > 200 µM and 33.1 µM | –
COc1ccc(-c2c3c([nH]c(=S)c2C#N)CCC3)cc1 | 178 µM | > 200 µM | –
CC1=C(C(=O)N[C@@H](CC(C)C)C(=O)O)N2C(=O)[C@@H](NC(=O)C(N)c3ccccc3)[C@H]2SC1 (some centres not stated) | 117 µM | > 200 µM | –
COc1cc(C)cc2ccc(Br)c(O)c12 | > 200 µM | > 200 µM | –

Structure (SMILES) | EC50 | IC50 | outcome
C1=NC(N(Cc2ccccc2)Cc2ccccc2)N(Cc2ccccc2)N1 (configuration not stated) | > 52.5 µM | 32.4 µM | –
O=C1NC(=S)N/C1=C/c1ccccc1O | > 200 µM | 123 µM | –
CCOC1(O)C(=O)c2ccccc2OC1(OCC)c1ccccc1 (configuration not stated) | > 200 µM | 26.9 µM | –
CCCC1N2CCCCC2[C@@H]2c3[nH]c4ccccc4c3CCN12 (some centres not stated) | > 427 µM | > 427 µM | –
CCN(CCCl)CCCCNc1c2ccccc2nc2ccc(OC)cc12 | – | – | inactive
Cc1n[nH]c(=O)n1C1CCCC1 | > 200 µM | > 200 µM | –
O=C1c2ccccc2C(=O)C1(Br)C(Cl)c1ccccc1 (configuration not stated) | > 200 µM | 3.55 µM | –
CC1(C)C(=O)N(O)C(C)(C)N1O | > 200 µM | > 200 µM | –
CNC(=O)N(C1=NCC(C)S1)c1ccc(C)c(C)c1 (configuration not stated) | – | – | inactive
O=c1[nH]nc(Cc2ccc([N+](=O)[O-])cc2)[nH]1 | > 200 µM | > 200 µM | –
S=c1cn[nH]c2c(Cl)cccc12 | > 107 µM | 81.3 µM | –
CC(C)=CCN1CC(C)C(=O)Nc2cc(Cl)ccc21 (configuration not stated) | > 132 µM | 28.2 µM | –
CCC(C)C(NC(=O)CNC(=O)C(Cc1cnc[nH]1)NC(=O)C(NC(=O)C(CS)NC(=O)C(CCC(N)=O)NC(=O)C(NC(=O)C(NC(=O)C(CO)NC(=O)C(NC(=O)C(CC(N)=O)NC(=O)C(NC(=O)C(CS)NC(=O)C1CCCN1C(=O)CNC(=O)C(NC(=O)CN)C(C)O)C(C)O)C(C)C)C(C)O)C(C)C)C(C)O)C(=O)NC(CCCN=C(N)N)C(N)=O (configuration not stated) (H-GTGPCTNVSTVQCTHGIR-NH2; configuration not given here) | > 50.1 µM | > 50.1 µM | –
CC(C)(C)c1cc(C(P(=O)(c2ccccc2)c2ccccc2)P(=O)(c2ccccc2)c2ccccc2)cc(C(C)(C)C)c1O | > 200 µM | 3.24 µM | –
CCN(CC)CC(C(=O)Nc1c(C)cccc1C)/C(C)=N\NC(=S)NN (configuration not stated) | > 35.5 µM | > 35.5 µM | –
CC(C)(C)N1NC1C1NN1C(C)(C)C (configuration not stated) | > 200 µM | > 200 µM | –
CCn1c2ccccc2c2cc(N=Nc3ccc(C#N)cc3)ccc21 | 10.7 µM | > 200 µM | –
O=C(O)/C(O)=C1/C=C(c2ccccc2)c2ccccc21 | – | – | inactive
COc1c(OC(C)C)cc2cc(O)c(C(=O)NC3Cc4ccc(c(Cl)n4)O[C@@H]4C=C5C#C/C(=C\C#CC6OC56C4OC4CC(C)(O)C(O)C(C)O4)C(OC4CC(O)C(N(C)C)C(C)O4)COC3=O)cc2c1OC (some centres not stated) | – | – | inactive
O=c1cc(CCl)n2cnc3c(ncn3C3OC(CO)C(O)C3O)c2n1 (configuration not stated) | – | – | inactive
Cc1nc2c(cnn2C)cc1CCc1ccccc1 | > 200 µM | 33.9 µM | –

Structure (SMILES) | EC50 | IC50 | outcome
CC(=O)n1c(COc2ccc3c(C)cc(=O)oc3c2)nc2ccccc2c1=O | > 91.2 µM | > 91.2 µM | –
N#CC(c1ccccc1)(c1ccccc1)[C@@H](c1ccccc1)[C@H](Cc1ccccc1)NS(=O)(=O)c1ccccc1 | > 200 µM | > 200 µM | –
CCN(CC)CCCNc1ncnc2c1C(c1ccccc1)c1ccccc1-2 (configuration not stated) | > 676 µM | 33.1 µM | –
C=CCOc1cc(NC(=S)c2ccoc2C)ccc1OC | 0.141 µM | 117 µM | –
O=C(N/N=C\c1ccc([N+](=O)[O-])s1)c1ccncc1 | > 200 µM | 8.71 µM | –
Clc1ccc(CN2COc3c(ccc4cccnc34)C2)c(Cl)c1 | > 200 µM | 1.45 µM | –
O=C(CNC(c1ccccc1)(c1ccccc1)c1ccccc1)NC1CCCCC1NC(=O)CNC(c1ccccc1)(c1ccccc1)c1ccccc1 (configuration not stated) | > 200 µM | > 200 µM | –
Nc1cc(C(=O)O)ccc1SSc1ccc(C(=O)O)cc1N | 93.3 µM | > 200 µM | –
COc1cc2c3c(c1OC)C1(C=CC(=O)C=C1)C[C@H]3N(C)CC2 | – | – | inactive
C=CCNC(=S)/N=C\c1c(C)[nH]n(-c2ccccc2)c1=O | > 100 µM | 95.5 µM | –
Cc1ccc(N2C(=O)C3c4[nH]c5ccc(C)cc5c4C4CCC(C(C)(C)C)CC4C3C2=O)cc1 (configuration not stated) | > 200 µM | 13.8 µM | –
CN(C)c1ccc(C(=CC=C2c3ccccc3C(=O)c3ccccc32)c2ccc(N(C)C)cc2)cc1 | > 3.09 µM | > 3.09 µM | –
CCOC(=O)c1cn2ccccc2c(C(C)=O)c1=N | > 200 µM | 166 µM | –
CC1(C)OC(=O)C(=Cc2ccc(F)cc2)C(=O)O1 | > 525 µM | 170 µM | –
O=C(NNc1nc2cc(F)ccc2n2cccc12)c1cnccn1 | > 200 µM | 3.47 µM | –
CC1SC2=NC3=C(c4ccccc4C3=O)C(c3ccc(Cl)cc3)N2C1=O (configuration not stated) | > 35.5 µM | > 35.5 µM | –
COc1ccc(NC(=O)CC(=O)N/N=C(\C)c2cc3ccccc3oc2=O)cc1 | > 200 µM | 102 µM | –
CN(c1ccccc1Cl)S(=O)(=O)c1ccc([N+](=O)[O-])cc1 | > 200 µM | > 200 µM | –
C=CCN(CC=C)Cn1c(=S)sc2ccccc21 | > 200 µM | 141 µM | –
O=C(c1ccc(Cl)cc1)N(C(=O)N1CCC(c2ccccc2)CC1)c1ccccc1 | > 200 µM | 11.2 µM | –
COc1ccc(-c2cc(-c3ccc(C)cc3)n(C3OC(COC(C)=O)C(OC(C)=O)C(OC(C)=O)C3OC(C)=O)c(=S)c2C#N)cc1 (configuration not stated) | > 200 µM | > 200 µM | –

Structure (SMILES) | EC50 | IC50 | outcome
CC(C)c1cccc(C(C)C)c1NC(=S)Nc1ccccc1 | – | – | inactive
C=CCCCC1(C)CCNC1=S (configuration not stated) | > 513 µM | > 513 µM | –
C=CCC(C=C=CCN(C)C)CO (configuration not stated) | > 1200 µM | 631 µM | –
CNNC1=NS(=O)(=O)c2cc(C(=O)OC)c(Cl)cc2S1 | > 200 µM | > 200 µM | –
CCN=C(N)SCCS(=O)(=O)O | > 200 µM | > 200 µM | –
CCN(CC)C(=S)SS(=O)(=O)c1ccc(Cl)cc1 | > 200 µM | 12 µM | –
COc1ccccc1-n1nnc2c(N)nc(N)nc21 | > 200 µM | > 200 µM | –
CN(C(=O)c1ccc(Cl)cc1)C(=S)N1CCN(c2ccccc2)CC1 | > 19.5 µM | > 19.5 µM | –
CC1=NN(C(=O)CC(=O)Nc2cccc(Cl)c2)C(=O)C1N=Nc1ccc(S(=O)(=O)c2ccc(N=NC3C(=O)N(C(=O)CC(=O)Nc4cccc(Cl)c4)N=C3C)cc2)cc1 (configuration not stated) | > 100 µM | > 100 µM | –
COC(=O)C1=C(O)C(C(=O)OC)[C@]2(O)[C@@H](C(=O)OC)[C@H]1C[C@@H](c1ccccc1)[C@@H]2C(=O)OC (some centres not stated) | > 200 µM | 18.6 µM | –
CC(=O)c1ccc(NC(=O)/C(CC(=O)c2sc(-c3cccnc3)nc2C)=N/NC(N)=O)cc1 | > 21.4 µM | > 21.4 µM | –
CCOP(=O)(CN1CCNCCNCC1)OCC | > 200 µM | > 200 µM | –
CC1(C)OC(=O)NC1=O | – | – | inactive
Nc1nc(Cl)cc(NCC2(O)CC(CO)C2)n1 (configuration not stated) | > 200 µM | > 200 µM | –
CC1(C)CC(=O)c2c([nH]c(=S)c(C#N)c2-c2ccc(Br)cc2)C1 | > 200 µM | 43.7 µM | –
Clc1c(Cl)c(Cl)c2nn(C3CCCO3)nc2c1Cl (configuration not stated) | > 200 µM | 39.8 µM | –
O=C(O)c1ccccc1C(=O)OC1CC2CC1C1OCC21 (configuration not stated) | > 309 µM | > 309 µM | –
CCC1=NC(N/N=C/c2ccccc2O)=N/C1=C\c1ccccc1O | > 50.1 µM | 9.12 µM | –
CC(NNC(=O)CC(=O)N(C(=O)c1ccccc1)c1ccc(Cl)cc1)c1cc2ccccc2oc1=O (configuration not stated) | > 200 µM | > 200 µM | –
C#CC(O)Cc1ccc(OC)c2occc12 (configuration not stated) | > 200 µM | 117 µM | –
CCOC(=O)/C=C(/C=C\COC1CCCCO1)c1ccccc1 (configuration not stated) | > 74.1 µM | 36.3 µM | –
